Results taken from US11180504B2 (ORCHID PHARMA LTD., priority 2016, dated 2021).
Values after ≈ are worked out from the molar mass of the structure shown. Where two headings read alike, the source gives them in different places.

Assays:
[1] = system: methicillin-sensitive Staphylococcus aureus; assay: MIC by broth micro-dilution (CLSI), methicillin-sensitive S. aureus; format: cell-based; conditions: MSSA S. aureus ATCC29213
[2] = system: carbapenem sensitive Pseudomonas aeruginosa; assay: MIC by broth micro-dilution (CLSI), carbapenem sensitive P. aeruginosa; format: cell-based
[3] = system: carbapenemase producing K. pneumoniae; assay: MIC by broth micro-dilution (CLSI), carbapenemase producing K. pneumoniae; format: cell-based, Klebsiella pneumoniae
[4] = system: carbapenem sensitive Escherichia coli; assay: MIC by broth micro-dilution (CLSI), carbapenem sensitive E. coli; format: cell-based
[5] = Staphylococcus aureus, ATCC 29213 / MSSA, read-out: MIC
[6] = Pseudomonas aeruginosa, ATCC27853, Meropenem susceptible P. aeruginosa ATCC27853, read-out: MIC
[7] = Klebsiella pneumoniae, ATCCBAA1705, KPC-2 K. pneumoniae ATCC BAA-1705, read-out: MIC
[8] = Escherichia coli, ATCC25922, ESBL −ve E. coli ATCC25922, read-out: MIC

| Structure (SMILES) | MIC [1, 5] [µg/mL] | MIC [2, 6] [µg/mL] | MIC [3, 7] [µg/mL] | MIC [4, 8] [µg/mL] | MIC [1] [µg/mL] | MIC ([2]; Meropenem susceptible P. aeruginosa ATCC27853) [µg/mL] | MIC ([3]; KPC-2 K. pneumoniae ATCC BAA-1705) [µg/mL] | MIC ([4]; ESBL −ve E. coli ATCC25922) [µg/mL] | MIC ([3]; Klebsiella pneumoniae, ATCCBAA1705) [µg/mL] |
| --- | --- | --- | --- | --- | --- | --- | --- | --- | --- |
| C[C@@H](NS(=O)(=O)Cn1cnnn1)[C@H]1C(=O)N2C(C(=O)O)=C(S[C@@H]3CN[C@H](C(=O)N4CC[C@@H](N)C4)C3)[C@H](C)[C@H]12 [Example 380, (4R,5S,6S)-6-((R)-1-((1H-tetrazol-1-yl)methylsulfonamido)ethyl)-3-((3S,5S)-5-((R)-3-aminopyrrolidine-1-carbonyl)pyrrolidin-3-ylthio)-4-methyl-7-oxo-1-azabicyclo[3.2.0]hept-2-ene-2-carboxylic acid] | 32 (≈ 56.2 µM) | 32 (≈ 56.2 µM) | 8 (≈ 14 µM) | 1 (≈ 1.76 µM) | – | – | – | – | – |
| C[C@@H](NS(=O)(=O)Cn1ncnn1)[C@H]1C(=O)N2C(C(=O)O)=C(S[C@@H]3CN[C@H](C(=O)N4CC[C@@H](N)C4)C3)[C@H](C)[C@H]12 [Example 382, (4R,5S,6S)-6-((R)-1-((2H-tetrazol-2-yl)methylsulfonamido)ethyl)-3-((3S,5S)-5-((R)-3-aminopyrroldine-1-carbonyl)pyrrolidin-3-ylthio)-4-methyl-7-oxo-1-azabicyclo[3.2.0]hept-2-ene-2-carboxylic acid] | 16 (≈ 28.1 µM) | 128 (≈ 225 µM) | 4 (≈ 7.02 µM) | 1 (≈ 1.76 µM) | – | – | – | – | – |
| C[C@@H](NC(=O)Cn1nnnc1N(C)C)[C@H]1C(=O)N2C(C(=O)O)=C(S[C@@H]3CN[C@H](C(=O)N(C)C)C3)[C@H](C)[C@H]12 [Example 383, (4R,5S,6R)-6-((R)-1-(2-(5-(dimethylamino)-1H-tetrazol-1-yl)acetamido)ethyl)-3-((3S,5S)-5-(dimethylcarbamoyl)pyrrolidin-3-ylthio)-4-methyl-7-oxo-1-azabicyclo[3.2.0]hept-2-ene-2-carboxylic acid] | 4 (≈ 7.47 µM) | > 128 | 4 (≈ 7.47 µM) | 0.25 (≈ 0.467 µM) | – | – | – | – | – |
| C[C@@H](NC(=O)Cn1nnnc1N(C)C)[C@H]1C(=O)N2C(C(=O)O)=C(S[C@@H]3CN[C@H](C(=O)N4CC[C@@H](N)C4)C3)[C@H](C)[C@H]12 [Example 384, (4R,5S,6R)-3-((3S,5S)-5-((R)-3-aminopyrrolidine-1-carbonyl)pyrrolidin-3-ylthio)-6-((R)-1-(2-(5-(dimethylamino)-1H-tetrazol-1-yl)acetamido)ethyl)-4-methyl-7-oxo-1-azabicyclo[3.2.0]hept-2-ene-2-carboxylic acid] | 4 (≈ 6.94 µM) | 64 (≈ 111 µM) | 4 (≈ 6.94 µM) | 0.5 (≈ 0.867 µM) | – | – | – | – | – |
| COc1nnnn1CC(=O)N[C@H](C)[C@H]1C(=O)N2C(C(=O)O)=C(S[C@@H]3CN[C@H](C(=O)N(C)C)C3)[C@H](C)[C@H]12 [Example 385, (4R,5S,6R)-3-((3S,5S)-5-(dimethylcarbamoyl)pyrrolidin-3-ylthio)-6-((R)-1-(2-(5-methoxy-1H-tetrazol-1-yl)acetamido)ethyl)-4-methyl-7-oxo-1-azabicyclo[3.2.0]hept-2-ene-2-carboxylic acid] | 4 (≈ 7.65 µM) | 64 (≈ 122 µM) | 2 (≈ 3.83 µM) | 0.25 (≈ 0.478 µM) | – | – | – | – | – |
| COc1nnnn1CC(=O)N[C@H](C)[C@H]1C(=O)N2C(C(=O)O)=C(S[C@@H]3CN[C@H](C(=O)N4CC[C@@H](N)C4)C3)[C@H](C)[C@H]12 [Example 386, (4R,5S,6R)-3-((3S,5S)-5-((R)-3-aminopyrrolidine-1-carbooyl)pyrrolidin-3-ylthio)-6-((R)-1-(2-(5-methoxy-1H-tetrazol-1-yl)acetamido)ethyl)-4-methyl-7-oxo-1-azabicyclo[3.2.0]hept-2-ene-2-carboxylic acid] | 2 (≈ 3.55 µM) | 8 (≈ 14.2 µM) | 8 (≈ 14.2 µM) | 0.125 (≈ 0.222 µM) | – | – | – | – | – |
| C[C@@H](NC(=O)Cn1cnnn1)[C@H]1C(=O)N2C(C(=O)O)=C(SC3CN(C(=O)[C@@H]4C[C@H](N)CN4)C3)[C@H](C)[C@H]12 [Example 387] | 8 (≈ 15.4 µM) | 32 (≈ 61.6 µM) | 8 (≈ 15.4 µM) | 0.25 (≈ 0.481 µM) | – | – | – | – | – |
| C[C@@H](NC(=O)C(N)C(F)(F)F)[C@H]1C(=O)N2C(C(=O)O)=C(S[C@@H]3CN[C@H](C(=O)N(C)C)C3)[C@H](C)[C@H]12 (stereo partly drawn) [Example 388] | 8 (≈ 15.8 µM) | > 128 | 8 (≈ 15.8 µM) | 2 (≈ 3.94 µM) | – | – | – | – | – |
| C[C@@H](NC(=O)C(N)C(F)(F)F)[C@H]1C(=O)N2C(C(=O)O)=C(S[C@@H]3CN[C@H](C(=O)N(C)C)C3)[C@H](C)[C@H]12 (stereo partly drawn) [Example 389, (4R,5S,6R)-6-((1R)-(2-amino-3,3,3-trifluoropropanamido)ethyl)-3-((3S,5S)-5-(dimethylcarbamoyl)pyrrolidin-3-ylthio)-4-methyl-7-oxo-1-azabicyclo[3.2.0]hept-2-ene-2-carboxylic acid] | – | – | – | – | 8 (≈ 15.8 µM) | >128 | 4 (≈ 7.88 µM) | 1 (≈ 1.97 µM) | – |
| C[C@@H](NC(=O)CN1CCn2nnnc2C1)[C@H]1C(=O)N2C(C(=O)O)=C(S[C@@H]3CN[C@H](C(=O)N4CC[C@@H](N)C4)C3)[C@H](C)[C@H]12 [Example 390, (4R,5S,6R)-3-((3S,5S)-5-((R)-3-aminopyrrolidine-1-carbonyl)pyrrolidin-3-ylthio)-6-((R)-1-(2-(5,6-dihydrotetrazolo[1,5-a]pyrazin-7(8H)-yl)acetamido)ethyl)-4-methyl-7-oxo-1-azabicyclo[3.2.0]hept-2-ene-2-carboxylic acid] | 4 (≈ 6.79 µM) | 128 (≈ 217 µM) | 16 (≈ 27.2 µM) | 1 (≈ 1.7 µM) | – | – | – | – | – |
| C[C@@H](NC(=O)Cn1cnnn1)[C@H]1C(=O)N2C(C(=O)O)=C(S[C@@H]3CN[C@H](CN4CC[C@@H](N)C4)C3)[C@H](C)[C@H]12 [Example 391] | 1 (≈ 1.92 µM) | 4 (≈ 7.7 µM) | 0.5 (≈ 0.962 µM) | 0.5 (≈ 0.962 µM) | – | – | – | – | – |
| C[C@@H](NC(=O)Cn1nnnc1N)[C@H]1C(=O)N2C(C(=O)O)=C(S[C@@H]3CN[C@H](C(=O)N(C)C)C3)[C@H](C)[C@H]12 [Example 392, (4R,5S,6R)-6-((R)-1-(2-(5-amino-1H-tetrazol-1-yl)acetamido)ethyl)-3-((3S,5S)-5-(dimethylcarbamoyl)pyrrolidin-3-ylthio)-4-methyl-7-oxo-1-azabicyclo[3.2.0]hept-2-ene-2-carboxylic acid] | 4 (≈ 7.88 µM) | 64 (≈ 126 µM) | 4 (≈ 7.88 µM) | 1 (≈ 1.97 µM) | – | – | – | – | – |
| C[C@@H](NC(=O)Cn1cnnn1)[C@H]1C(=O)N2C(C(=O)O)=C(S[C@@H]3CN[C@H](C(=O)N4CC[C@@H](O)C4)C3)[C@H](C)[C@H]12 [Example 393, (4R,5S,6R)-6-((R)-1-(2-(1H-tetrazol-1-yl)acetamido)ethyl)-3-((3S,5S)-5-((R)-3-hydroxypyrrolidine-1-carbonyl)pyrrolidin-3-ylthio)-4-methyl-7-oxo-1-azabicyclo[3.2.0]hept-2-ene-2-carboxylic acid] | 4 (≈ 7.48 µM) | 8 (≈ 15 µM) | 1 (≈ 1.87 µM) | 0.125 (≈ 0.234 µM) | – | – | – | – | – |
| C[C@@H](NC(=O)Cc1nnc(C(F)(F)F)o1)[C@H]1C(=O)N2C(C(=O)O)=C(S[C@@H]3CN[C@H](C(=O)N4CC[C@@H](N)C4)C3)[C@H](C)[C@H]12 [Example 394, (4R,5S,6R)-3-((3S,5S)-5-((R)-3-aminopyrrolidine-1-carbonyl)pyrrolidin-3-ylthio)-4-methyl-7-oxo-6-((R)-1-(2-(5-(trifluoromethyl)-1,3,4-oxadiazol-2-yl)acetamido)ethyl)-1-azabicyclo[3.2.0]hept-2-ene-2-carboxylic acid] | 8 (≈ 13.3 µM) | 128 (≈ 213 µM) | 32 (≈ 53.2 µM) | 2 (≈ 3.32 µM) | – | – | – | – | – |
| C[C@@H](NC(=O)Cn1cnnn1)[C@H]1C(=O)N2C(C(=O)O)=C(S[C@@H]3CN[C@H](C(=O)N4CCN(C(=O)CN)CC4)C3)[C@H](C)[C@H]12 [Example 395, (4R,5S,6R)-6-((R)-1-(2-(1H-tetrazol-1-yl)acetamido)ethyl)-3-((3S,5S)-5-(4-(2-aminoacetyl)piperazine-1-carbonyl)pyrrolidin-3-ylthio)-4-methyl-7-oxo-1-azabicyclo[3.2.0]hept-2-ene-2-carboxylic acid] | 2 (≈ 3.39 µM) | 1 (≈ 1.69 µM) | 1 (≈ 1.69 µM) | 0.125 (≈ 0.212 µM) | – | – | – | – | – |
| C[C@@H](NC(=O)Cn1cnnn1)[C@H]1C(=O)N2C(C(=O)O)=C(S[C@@H]3CN[C@H](C(=O)N4C[C@@H](O)[C@H](O)C4)C3)[C@H](C)[C@H]12 [Example 396, (4R,5S,6R)-6-((R)-1-(2-(1H-tetrazol-1-yl)acetamido)ethyl)-3-((3S,5S)-5-((3R,4R)-3,4-dihydroxypyrrolidine-1-carbonyl)pyrrolidin-3-ylthio)-methyl-7-oxo-1-azabicyclo[3.2.0]hept-2-ene-2-carboxylic acid] | 4 (≈ 7.26 µM) | 4 (≈ 7.26 µM) | 1 (≈ 1.82 µM) | 0.125 (≈ 0.227 µM) | – | – | – | – | – |
| C[C@@H](NC(=O)Cn1cnnn1)[C@H]1C(=O)N2C(C(=O)O)=C(S[C@@H]3CN[C@H](C(=O)N4CCC5(CC6CCC(C5)N6)C4)C3)[C@H](C)[C@H]12 (stereo partly drawn) [Example 397, (4R,5S,6R)-6-((R)-1-(2-(1H-tetrazol-1-yl)acetamido)ethyl)-3-((3S,5S)-5-(8-azaspiro[bicyclo[3.2.1]octane-3,3′-pyrrolidine]-1′-ylcarbonyl)pyrrolidin-3-ylthio)-4-methyl-7-oxo-1-azabicyclo[3.2.0]hept-2-ene-2-carboxylic acid] | 2 (≈ 3.26 µM) | 2 (≈ 3.26 µM) | – | 0.25 (≈ 0.407 µM) | – | – | – | – | 1 (≈ 1.63 µM) |
| C[C@@H](NC(=O)Cn1cnnn1)[C@H]1C(=O)N2C(C(=O)O)=C(S[C@@H]3CN[C@H](C(=O)N4CC[C@@H](NC(=O)CN)C4)C3)[C@H](C)[C@H]12 [Example 398, (4R,5S,6R)-6-((R)-1-(2-(1H-tetrazol-1-yl)acetamido)ethyl)-3-((3S,5S)-5-((R)-3-(2-aminoacetamido)pyrrolidine-1-carbonyl)pyrrolidin-3-ylthio)-4-methyl-7-oxo-1-azabicyclo[3.2.0]hept-2-ene-2-carboxylic acid] | 4 (≈ 6.77 µM) | 2 (≈ 3.39 µM) | 1 (≈ 1.69 µM) | 0.25 (≈ 0.423 µM) | – | – | – | – | – |
